Assay results reported in paper PMC8972069 (Nuclear medicine and biology, 2020).
pIC50: −log10 of the molar value.

Legend:
[1] = target: Human recombinant S1PR1 lysophospholipid receptor membrane (Homo sapiens, UniProt P21453); test: [^32P]S1P competitive binding assay, S1PR1
[2] = target: Human recombinant S1PR3 lysophospholipid receptor membrane (Homo sapiens, UniProt Q99500); test: [^32P]S1P competitive binding assay, S1PR3
[3] = target: T1, human recombinant S1PR4 lysophospholipid receptor membrane (Homo sapiens, UniProt O95977); test: [^32P]S1P competitive binding assay, S1PR4
T1 sequence (O95977 1-384): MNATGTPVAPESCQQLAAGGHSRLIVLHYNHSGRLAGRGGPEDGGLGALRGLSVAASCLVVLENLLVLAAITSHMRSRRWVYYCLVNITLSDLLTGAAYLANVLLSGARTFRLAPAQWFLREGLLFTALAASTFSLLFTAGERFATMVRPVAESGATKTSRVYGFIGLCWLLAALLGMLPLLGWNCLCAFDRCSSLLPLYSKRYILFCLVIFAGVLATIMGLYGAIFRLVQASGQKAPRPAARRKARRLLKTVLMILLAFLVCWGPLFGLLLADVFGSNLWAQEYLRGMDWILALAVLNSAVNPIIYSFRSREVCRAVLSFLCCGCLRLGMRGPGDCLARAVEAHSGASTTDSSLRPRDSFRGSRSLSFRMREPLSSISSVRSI

[4] = target: Human recombinant S1PR5 lysophospholipid receptor membrane (Homo sapiens, UniProt Q9H228); test: [^32P]S1P competitive binding assay, S1PR5

Measured: pIC50

Chain of Human recombinant S1PR1 lysophospholipid receptor membrane (P21453 whole entry): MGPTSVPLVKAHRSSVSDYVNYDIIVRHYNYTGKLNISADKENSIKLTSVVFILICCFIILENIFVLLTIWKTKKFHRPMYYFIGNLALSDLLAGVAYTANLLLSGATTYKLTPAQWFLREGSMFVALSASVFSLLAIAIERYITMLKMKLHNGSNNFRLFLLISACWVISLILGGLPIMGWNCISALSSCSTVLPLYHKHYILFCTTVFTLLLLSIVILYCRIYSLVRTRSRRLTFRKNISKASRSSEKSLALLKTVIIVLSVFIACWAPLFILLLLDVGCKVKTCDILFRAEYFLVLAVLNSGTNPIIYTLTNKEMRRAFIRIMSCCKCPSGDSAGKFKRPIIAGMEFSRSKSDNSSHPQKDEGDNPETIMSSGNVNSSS
Chain of Human recombinant S1PR5 lysophospholipid receptor membrane (Q9H228 whole entry): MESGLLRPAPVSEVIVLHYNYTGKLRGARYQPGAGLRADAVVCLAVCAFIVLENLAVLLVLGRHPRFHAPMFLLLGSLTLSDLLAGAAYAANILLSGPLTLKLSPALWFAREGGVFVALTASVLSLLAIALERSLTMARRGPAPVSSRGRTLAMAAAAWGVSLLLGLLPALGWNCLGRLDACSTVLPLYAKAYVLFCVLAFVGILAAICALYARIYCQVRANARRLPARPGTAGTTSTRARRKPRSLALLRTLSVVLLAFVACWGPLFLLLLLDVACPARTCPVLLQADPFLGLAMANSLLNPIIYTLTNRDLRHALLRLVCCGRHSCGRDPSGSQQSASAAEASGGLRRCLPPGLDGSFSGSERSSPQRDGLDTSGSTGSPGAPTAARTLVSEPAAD
Chain of Human recombinant S1PR3 lysophospholipid receptor membrane (Q99500 whole entry): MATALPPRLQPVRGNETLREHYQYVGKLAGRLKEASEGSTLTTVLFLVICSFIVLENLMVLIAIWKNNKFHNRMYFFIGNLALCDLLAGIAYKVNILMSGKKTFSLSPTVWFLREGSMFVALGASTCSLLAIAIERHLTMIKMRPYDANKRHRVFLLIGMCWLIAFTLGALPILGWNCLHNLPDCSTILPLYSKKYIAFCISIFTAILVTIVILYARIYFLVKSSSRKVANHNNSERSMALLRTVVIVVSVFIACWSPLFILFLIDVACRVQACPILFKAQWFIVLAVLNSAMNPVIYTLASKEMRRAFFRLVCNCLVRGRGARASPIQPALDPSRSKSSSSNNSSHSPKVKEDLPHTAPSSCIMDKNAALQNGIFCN

COc1ccc(NC(=O)Cn2c(=O)c3ccccc3n(CC(=O)Nc3cc(I)c(OC)cc3OC)c2=O)cc1 [TZ6544, N-(5-iodo-2,4-dimethoxyphenyl)-2-(3-(2-((4-methoxyphenyl)amino)-2-oxoethyl)-2,4-dioxo-3,4-dihydroquinazolin-1(2H)-yl)acetamide]
< 6.00: all assays above
